Experimental data reported in ChEMBL document CHEMBL1914411, “Synthesis of lipophilic dimeric C-7/C-7-linked ciprofloxacin and C-6/C-6-linked levofloxacin derivatives. Versatile in vitro biological evaluations of monomeric and dimeric fluoroquinolone derivatives as potential antitumor, antibacterial or antimycobacterial agents” (Eur J Med Chem, 2011).
Values after ≈ are worked out from the molar mass of the structure shown. Active and inactive are the calls of the source.

Columns and labels:
Escherichia coli = assay: Antimicrobial activity against Escherichia coli CIP 53126 after 18 to 24 hrs by broth microdilution method; assay type: functional
Pseudomonas aeruginosa = assay: Antimicrobial activity against Pseudomonas aeruginosa CIP 82.118 after 18 to 24 hrs by broth microdilution method; assay type: functional
[1] = test system: Mycobacterium tuberculosis; assay: Antimycobacterial activity against Mycobacterium tuberculosis H37Rv assessed as growth inhibition at 10 uM after 6 days by MTT colorimetric microassay; assay type: functional; settings: for inhibition of growth at 10 µM: 144 h, read-out: GI
[2] = test system: Mycobacterium tuberculosis; assay: Antimycobacterial activity against Mycobacterium tuberculosis H37Rv assessed as growth inhibition at 0.1 uM after 6 days by MTT colorimetric microassay; assay type: functional, organism-based
Enterococcus hirae = assay: Antimicrobial activity against Enterococcus hirae CIP 5855 after 18 to 24 hrs by broth microdilution method; assay type: functional
Staphylococcus aureus [3] = assay: Antimicrobial activity against Staphylococcus aureus CIP 4.83 after 18 to 24 hrs by broth microdilution method; assay type: functional
Staphylococcus aureus [4] = assay: Antimicrobial activity against multidrug-resistant Staphylococcus aureus isolate 2 after 18 to 24 hrs by broth microdilution method; assay type: functional
Staphylococcus aureus [5] = assay: Antimicrobial activity against multidrug-resistant Staphylococcus aureus isolate 1 after 18 to 24 hrs by broth microdilution method; assay type: functional
Staphylococcus aureus [6] = assay: Antimicrobial activity against methicillin-resistant Staphylococcus aureus ATCC 33591 after 18 to 24 hrs by broth microdilution method; assay type: functional
Staphylococcus aureus [7] = assay: Antimicrobial activity against methicillin-resistant Staphylococcus aureus ATCC 33592 after 18 to 24 hrs by broth microdilution method; assay type: functional

| Compound | MBC (Escherichia coli) | MIC (Escherichia coli) | MBC (Pseudomonas aeruginosa) | MIC (Pseudomonas aeruginosa) | inhibition of growth at 10 µM [1] | growth inhibition (GI) [2] | MBC (Enterococcus hirae) | MIC (Enterococcus hirae) | MBC (Staphylococcus aureus [3]) | MIC (Staphylococcus aureus [3]) | MBC (Staphylococcus aureus [4]) | MIC (Staphylococcus aureus [4]) | MBC (Staphylococcus aureus [5]) | MIC (Staphylococcus aureus [5]) | MBC (Staphylococcus aureus [6]) | MIC (Staphylococcus aureus [6]) | MBC (Staphylococcus aureus [7]) | MIC (Staphylococcus aureus [7]) | growth inhibition (GI) [1] |
| --- | --- | --- | --- | --- | --- | --- | --- | --- | --- | --- | --- | --- | --- | --- | --- | --- | --- | --- | --- |
| CCCCCCCCCCCCNC(=O)c1cn2c3c(c(N4CCN(C)CC4)c(F)cc3c1=O)OC[C@@H]2C | 500 µM (≈ 264 µg/mL) | 125 µM (≈ 66.1 µg/mL) | 250 µM (≈ 132 µg/mL) | 62.5 µM (≈ 33 µg/mL) | > 95% | inactive | 3.9 µM (≈ 2.06 µg/mL) | 3.9 µM (≈ 2.06 µg/mL) | 15.6 µM (≈ 8.25 µg/mL) | 3.9 µM (≈ 2.06 µg/mL) |  |  |  |  |  |  |  |  |  |
| O=C(CCCCCCCCCCC(=O)OCN1CCN(c2cc3c(cc2F)c(=O)c(C(=O)O)cn3C2CC2)CC1)OCN1CCN(c2cc3c(cc2F)c(=O)c(C(=O)O)cn3C2CC2)CC1 | 62.5 µM (≈ 57.3 µg/mL) | 31.2 µM (≈ 28.6 µg/mL) | 125 µM (≈ 115 µg/mL) | 62.5 µM (≈ 57.3 µg/mL) |  | inactive | 31.2 µM (≈ 28.6 µg/mL) | 31.2 µM (≈ 28.6 µg/mL) | ≤ 0.97 µM | ≤ 0.97 µM | 250 µM (≈ 229 µg/mL) | 62.5 µM (≈ 57.3 µg/mL) | 250 µM (≈ 229 µg/mL) | 125 µM (≈ 115 µg/mL) | 3.9 µM (≈ 3.58 µg/mL) | 1.9 µM (≈ 1.74 µg/mL) | 0.48 µM (≈ 0.44 µg/mL) | 0.24 µM (≈ 0.22 µg/mL) |  |
| O=C(O)c1cn(C2CC2)c2cc(N3CCN(C(=O)CO)CC3)c(F)cc2c1=O | 1.9 µM (≈ 0.74 µg/mL) | ≤ 0.97 µM | 250 µM (≈ 97.3 µg/mL) | 15.6 µM (≈ 6.07 µg/mL) |  | inactive | 7.8 µM (≈ 3.04 µg/mL) | 7.8 µM (≈ 3.04 µg/mL) | 1.9 µM (≈ 0.74 µg/mL) | ≤ 0.97 µM | 62.5 µM (≈ 24.3 µg/mL) | 62.5 µM (≈ 24.3 µg/mL) | > 500 µM | 125 µM (≈ 48.7 µg/mL) | 1.9 µM (≈ 0.74 µg/mL) | 0.97 µM (≈ 0.378 µg/mL) | 1.9 µM (≈ 0.74 µg/mL) | 0.24 µM (≈ 0.0935 µg/mL) |  |
| CCOC(=O)N1CCN(c2cc3c(cc2F)c(=O)c(C(=O)O)cn3C2CC2)CC1 | 31.2 µM (≈ 12.6 µg/mL) | 7.8 µM (≈ 3.15 µg/mL) | 250 µM (≈ 101 µg/mL) | 62.5 µM (≈ 25.2 µg/mL) |  | inactive | 3.9 µM (≈ 1.57 µg/mL) | 3.9 µM (≈ 1.57 µg/mL) | ≤ 0.97 µM | ≤ 0.97 µM | 125 µM (≈ 50.4 µg/mL) | 62.5 µM (≈ 25.2 µg/mL) | 500 µM (≈ 202 µg/mL) | 125 µM (≈ 50.4 µg/mL) | 1.9 µM (≈ 0.766 µg/mL) | 0.97 µM (≈ 0.391 µg/mL) | 1.9 µM (≈ 0.766 µg/mL) | 0.48 µM (≈ 0.194 µg/mL) |  |
| CCCCCCCCCC(=O)OCOC(=O)c1cn2c3c(c(N4CCN(C)CC4)c(F)cc3c1=O)OC[C@@H]2C | ≤ 0.97 µM | ≤ 0.97 µM | 3.9 µM (≈ 2.13 µg/mL) | ≤ 0.97 µM | > 95% | inactive | 1.9 µM (≈ 1.04 µg/mL) | ≤ 0.97 µM | ≤ 0.97 µM | ≤ 0.97 µM |  |  |  |  |  |  |  |  |  |
| O=C(O)c1cn(C2CC2)c2cc(N3CCN(C(=O)CCCCCCCCCCCCCCCCC(=O)N4CCN(c5cc6c(cc5F)c(=O)c(C(=O)O)cn6C5CC5)CC4)CC3)c(F)cc2c1=O | 500 µM (≈ 471 µg/mL) | 125 µM (≈ 118 µg/mL) | 250 µM (≈ 235 µg/mL) | 125 µM (≈ 118 µg/mL) |  | inactive | 500 µM (≈ 471 µg/mL) | 125 µM (≈ 118 µg/mL) | 500 µM (≈ 471 µg/mL) | 125 µM (≈ 118 µg/mL) |  |  |  |  |  |  |  |  | inactive |
| CC(C)(C)C(=O)N1CCN(c2cc3c(cc2F)c(=O)c(C(=O)O)cn3C2CC2)CC1 | 31.2 µM (≈ 13 µg/mL) | 15.6 µM (≈ 6.48 µg/mL) | 250 µM (≈ 104 µg/mL) | 62.5 µM (≈ 26 µg/mL) |  | inactive | 7.8 µM (≈ 3.24 µg/mL) | 7.8 µM (≈ 3.24 µg/mL) | ≤ 0.97 µM | ≤ 0.48 µM | 31.2 µM (≈ 13 µg/mL) | 31.2 µM (≈ 13 µg/mL) | 500 µM (≈ 208 µg/mL) | 31.2 µM (≈ 13 µg/mL) | 0.48 µM (≈ 0.199 µg/mL) | 0.48 µM (≈ 0.199 µg/mL) | 0.48 µM (≈ 0.199 µg/mL) | 0.24 µM (≈ 0.0997 µg/mL) |  |
| CC(C)(C)OC(=O)N1CCN(c2cc3c(cc2F)c(=O)c(C(=O)O)cn3C2CC2)CC1 | 1.9 µM (≈ 0.82 µg/mL) | 1.9 µM (≈ 0.82 µg/mL) | 250 µM (≈ 108 µg/mL) | 15.6 µM (≈ 6.73 µg/mL) |  | inactive | 15.6 µM (≈ 6.73 µg/mL) | 15.6 µM (≈ 6.73 µg/mL) | ≤ 0.24 µM | ≤ 0.12 µM | 31.2 µM (≈ 13.5 µg/mL) | 15.6 µM (≈ 6.73 µg/mL) | 500 µM (≈ 216 µg/mL) | 31.2 µM (≈ 13.5 µg/mL) | 0.48 µM (≈ 0.207 µg/mL) | 0.06 µM (≈ 0.0259 µg/mL) | 0.48 µM (≈ 0.207 µg/mL) | 0.12 µM (≈ 0.0518 µg/mL) |  |
| CCCCCC(=O)OCOC(=O)c1cn2c3c(c(N4CCN(C)CC4)c(F)cc3c1=O)OC[C@@H]2C |  |  |  |  | > 95% | inactive |  |  |  |  |  |  |  |  |  |  |  |  |  |
